Test system: Melanoderm human tissue (MEL-300-B, Mattek Corp.)
Assay: Melanoderm assay (melanin quantitation)
Format: cell-based
Conditions: for Melanin content / skin lightening effect (in words): melanoderm treatment, 10 uM, compared to vehicle control; for Melanin (μg/μg protein): test compound 10 uM, 12 d dosing, melanin normalized to protein, mean +/− standard deviation, n = 3, vehicle control 0.240 +/− 0.020
Method: Control compounds consisted of a negative control (ultrapure water), vehicle control [Dimethylsulfoxide (DMSO) in ultrapure water—final concentration of 0.1%] and positive control (2% kojic acid in ultrapure water—final concentration of 700 uM). Test compounds where prepared in DMSO at 10 mM concentrations and diluted with EPI-100-LLMM media (Mattek Corp.) to a final concentration of 10 uM. Melanoderm human tissue (MEL-300-B, Mattek Corp.) was equilibrated with EPI-100-NMM media for 24 h, followed by equilibration with EPI-100-LLMM media for 48 h prior to treatment with test compounds and controls. Dosing and re-feeding of melanoderms with controls and test compounds continued for a total of 12 d following standard protocols and the melanoderms collected for melanin quantitation, viability analysis and macroscopic/microscopic imaging analysis. For melanin quantitation, tissues were suspended in phosphate buffer saline (PBS) buffer (5 ml) for 5 min, removed from the PBS and washed/rinsed with additional PBS (2 ml). Tissues were treated with 1% sodium bicarbonate solution (300 ul) for 30 min, followed by removal of the sodium bicarbonate solution and washed/rinsed with PBS solution (2×2 ml). Tissues were suspended in Solvable reagent (500 ul) and incubated at 95° C. for 24 h along with melanin standard samples (prepared by suspending melanin (cat #M8631, Sigma-Aldrich) in Solvable reagent to generate melanin standards at 0, 2.5, 5, 10, 25, 50 and 100 ug). All incubated samples were centrifuged at 13000 rpm for 5 min and the optical density of the supernatant was read/determined at 490 nm. The amount of melanin (ug) from each tissue sample was determined from the melanin standard samples calibration curve. Protein concentration of tissue samples was determined using the BCA protein assay kit (Pierce) and melanin content was normalized and expressed as melanin (ug)/protein (ug) (Table 1). Tissue viability as a result of test compound dosing/feeding relative to negative and vehicle controls was determined using the WST-1 reagent kit (cat #05015944001, Roche). Tissue images were examined macroscopically to assess the skin lightening ability of test compounds compared to negative, vehicle and positive controls and microscopically (10× magnification) to assess cytotoxicity.

| SMILES | Melanin content / skin lightening effect (in words) | Melanin (μg/μg protein) |
| --- | --- | --- |
| CC(C)Oc1ccc(C(NC2CCC(O)CC2)C2CCCCC2)cc1 (stereo not drawn) [Example 1, 4-((cyclohexyl(4-isopropoxyphenyl)methyl)amino)cyclohexanol] | reduced melanin content | 0.158 +/− 0.006 μg/μg protein |
| CC(C)Oc1ccc(C(NC2CCC(CCO)CC2)c2ccccc2)cc1 (stereo not drawn) [Example 2, 2-(4-(((4-isopropoxyphenyl)(phenyl)methyl)amino)cyclohexyl)ethanol] | reduced melanin content | 0.076 +/− 0.012 μg/μg protein |
| CC1CCC(NC(c2ccccc2)c2ccc(OC(C)C)cc2)CC1 (stereo not drawn) [Example 3, N-((4-isopropoxyphenyl)(phenyl)methyl)-4-methylcyclohexanamine] | reduced melanin content | 0.144 +/− 0.006 μg/μg protein |

— patent US20220313581A1, “NOVEL COMPOUNDS FOR SKIN LIGHTENING” (Conopco, Inc. , d/b/a UNILEVER, priority 2019, published 2022)
